According to US20250003989A1, “METHODS FOR TAUOPATHY DIAGNOSIS AND TREATMENT” (The Children`s Medical Center Corporation, priority 2021, published 2025):

Tested on: naïve Tau
Experiment: In vitro second generation seeding without heparin, ThT assay
Settings: equimolar effective concentration of heparin as contained in the catalytic amount of 2b seed
Description: Seeds were generated following the procedure described above at 50 μM protein concentration. The sample was vigorously pipetted to evenly disperse fibrils, and was added at a 2.5 mol % (1.25 μM protein concentration) to a 50 μM sample of new protein. Aggregation was followed with ThioflavinT assays. Thioflavin T (ThT) assays for Beta-sheet content were conducted with 50 μM protein content, and […] ThT in a 384-well Corning plate. A BioTek synergy2 plate reader was used with temperature control set at 37° C.

Sequence of naïve Tau (as listed by the source): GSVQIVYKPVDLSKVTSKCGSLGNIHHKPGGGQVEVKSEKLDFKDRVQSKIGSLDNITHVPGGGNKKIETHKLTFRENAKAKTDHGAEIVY

## heparin
  ThT fluorescence, heparin-only control: no detectable ThT fluorescence
